Measurements: US20260109707A1, “HETEROBIFUNCTIONAL COMPOUNDS AND METHODS OF TREATING DISEASE” (Halda Therapeutics OpCo. Inc., priority 2022, published 2026)
Where two headings read alike, the source gives them in different places.

Columns and labels:
VCaP cells = assay: Cellular growth inhibition assay for VCaP cells (CellTiter-Glo, 72 hours); type: cell-based, human
How it was run: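 Luminescent viability signal after 72 h of compound exposure gave GI50 values by four-parameter nonlinear regression. Compounds were added in 0.5% DMSO to cells plated 24 h earlier at 5000/well in DMEM containing 10% FBS.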

[1] = tested on: T-Rex 293 cell line SC3 cells lacking increased expression of androgen receptor protein; assay: Cellular growth inhibition assay, T-Rex 293 SC3 cells without doxycycline (CellTiter-Glo, 72 hours); type: cell-based; settings: T-Rex 293 cell line SC3 cells not exposed to doxycycline (lacking increased androgen receptor expression)
How it was run: (§1)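 Doxycycline (10 ng/mL) was either included or omitted to toggle wild-type androgen receptor expression in SC3 cells, a T-Rex 293 clone, grown in stripped-serum, phenol red-free medium. After 72 hours with compound, viable cells were quantified by CellTiter-Glo 2.0.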

[2] = tested on: T-Rex 293 cell line SC3 cells having increased expression of androgen receptor protein due to exposure to doxycycline; assay: Cellular growth inhibition assay, T-Rex 293 SC3 cells with doxycycline (CellTiter-Glo, 72 hours); type: cell-based; settings: T-Rex 293 SC3 cells with increased androgen receptor expression due to doxycycline (10 ng/mL)
How it was run: as §1

Row | Compound | GI50 (VCaP cells; Homo sapiens, VCaP, 72 h) [nM] | GI50 ([1]; 72 h) [nM] | GI50 ([2]; 72 h) [nM] | GI50 (VCaP cells) [nM] | GI50 [1] [nM] | GI50 [2] [nM]
1 | Cc1sc2c(c1C)C(c1ccc(OCC3CCC4(CCCN(c5ccc(C(=O)N[C@H]6CC[C@H](Oc7ccc(C#N)c(Cl)c7)CC6)nn5)C4)C3)cc1)=N[C@@H](C)c1nnc(C)n1-2 (stereo partly drawn) [I-626] | < 500 | < 500 | < 500 |  |  | 
2 | Cc1sc2c(c1C)C(c1ccc(OCC3CCC4(CCCN(c5ccc(C(=O)N[C@H]6CC[C@H](Oc7ccc(C#N)c(Cl)c7)CC6)nn5)C4)C3)cc1)=N[C@@H](C)c1nnc(C)n1-2 (stereo partly drawn) [I-627] |  |  |  | < 500 | < 500 | < 500
3 | Cc1sc2c(c1C)C(c1ccc(CC3CC(CC4CCN(c5ccc(C(=O)N[C@H]6CC[C@H](Oc7ccc(C#N)c(Cl)c7)CC6)nn5)CC4)C3)cc1)=N[C@@H](C)c1nnc(C)n1-2 (stereo partly drawn) [I-628] | < 500 | > 3000 | < 500 |  |  | 
4 | Cc1sc2c(c1C)C(c1ccc(CC3CC(CC4CCN(c5ccc(C(=O)N[C@H]6CC[C@H](Oc7ccc(C#N)c(Cl)c7)CC6)nn5)CC4)C3)cc1)=N[C@@H](C)c1nnc(C)n1-2 (stereo partly drawn) [I-629] |  |  |  | < 500 | > 3000 | < 500
5 | Cc1sc2c(c1C)C(c1ccc(C3CCC4(CC3)CCN(c3ccc(C(=O)N[C@H]5CC[C@H](Oc6ccc(C#N)c(Cl)c6)CC5)nn3)CC4)nc1)=N[C@@H](C)c1nnc(C)n1-2 [I-630] |  | < 500 | < 500 | 1500 to 3000 |  | 
6 | Cc1sc2c(c1C)C(Oc1ccc(C3CC4(CCN(c5ccc(C(=O)N[C@H]6CC[C@H](Oc7ccc(C#N)c(Cl)c7)CC6)nn5)CC4)C3)cc1)=NC(Cc1ncco1)c1nnc(C)n1-2 (stereo partly drawn) [I-631] | < 500 | > 3000 | > 3000 |  |  | 
7 | CC[C@@H]1N=C(c2ccc(OC3(C)CC4(CN(c5ccc(C(=O)N[C@H]6CC[C@H](Oc7ccc(C#N)c(Cl)c7)CC6)nn5)C4)C3)cc2)c2c(sc(C)c2C)-n2c(C)nnc21 [I-632] | < 500 | < 500 | < 500 |  |  | 
8 | Cc1sc2c(c1C)C(c1ccc(CC3CCC4(CCCN(c5ccc(C(=O)N[C@H]6CC[C@H](Oc7ccc(C#N)c(Cl)c7)CC6)nn5)C4)C3)cn1)=N[C@@H](C)c1nnc(C)n1-2 (stereo partly drawn) [I-635] |  |  |  | < 500 | < 500 | < 500
9 | Cc1sc2c(c1C)C(c1ccc(CC3CCC4(CCCN(c5ccc(C(=O)N[C@H]6CC[C@H](Oc7ccc(C#N)c(Cl)c7)CC6)nn5)C4)C3)cn1)=N[C@@H](C)c1nnc(C)n1-2 (stereo partly drawn) [I-636] |  |  |  | < 500 | 500 to 1500 | < 500
10 | Cc1sc2c(c1C)C(c1ccc(OCC3CCC4(CCCN(c5ccc(C(=O)N[C@H]6CC[C@H](Oc7ccc(C#N)c(Cl)c7)CC6)nn5)C4)C3)cc1)=N[C@@H](C)c1nnc(C)n1-2 (stereo partly drawn) [I-637] |  |  |  | < 500 | < 500 | < 500
11 | Cc1sc2c(c1C)C(c1ccc(OCC3CCC4(C3)CN(c3ccc(C(=O)N[C@H]5CC[C@H](Oc6ccc(C#N)c(Cl)c6)CC5)nn3)CCO4)cc1)=N[C@@H](C)c1nnc(C)n1-2 (stereo partly drawn) [I-638] |  |  |  | 1500 to 3000 | < 500 | < 500
12 | Cc1sc2c(c1C)C(c1ccc(OCC3CCC4(C3)CN(c3ccc(C(=O)N[C@H]5CC[C@H](Oc6ccc(C#N)c(Cl)c6)CC5)nn3)CCO4)cc1)=N[C@@H](C)c1nnc(C)n1-2 (stereo partly drawn) [I-639] |  |  |  | > 3000 | > 3000 | < 500
13 | Cc1sc2c(c1C)C(c1ccc(CC3CN(C(C)(C)C4CCN(c5ccc(C(=O)N[C@H]6CC[C@H](Oc7ccc(C#N)c(Cl)c7)CC6)nn5)CC4)C3)cc1)=N[C@@H](C)c1nnc(C)n1-2 [I-640] | < 500 | > 3000 | < 500 |  |  | 
14 | Cc1sc2c(c1C)C(c1ccc(N3CCC4(CCN(c5ccc(C(=O)N[C@H]6CC[C@H](Oc7ccc(C#N)c(Cl)c7)CC6)nn5)CC4)C3)cc1)=N[C@@H](C)c1nnc(C)n1-2 [I-641] | < 500 | < 500 | < 500 |  |  | 
15 | Cc1sc2c(c1C)C(c1ccc(CC3CC4(CCCN(c5ccc(C(=O)N[C@H]6CC[C@H](Oc7ccc(C#N)c(Cl)c7)CC6)nn5)C4)C3)cn1)N[C@@H](Cc1ncco1)c1nnc(C)n1-2 (stereo partly drawn) [I-642] | > 3000 | > 3000 | < 500 |  |  | 
16 | Cc1sc2c(c1C)C(c1ccc(CCC3CC4(CCCN(c5ccc(C(=O)N[C@H]6CC[C@H](Oc7ccc(C#N)c(Cl)c7)CC6)nn5)C4)C3)cn1)N[C@@H](Cc1ncco1)c1nnc(C)n1-2 (stereo partly drawn) [I-643] | < 500 | > 3000 | < 500 |  |  | 

Row | Compound | GI50 (VCaP cells; Homo sapiens, VCaP, 72 h) [nM] | GI50 ([1]; 72 h) [nM] | GI50 ([2]; 72 h) [nM] | GI50 (VCaP cells) [nM] | GI50 [1] [nM] | GI50 [2] [nM]
17 | Cc1sc2c(c1C)C(c1ccc(CCC3CC4(CCCN(c5ccc(C(=O)N[C@H]6CC[C@H](Oc7ccc(C#N)c(Cl)c7)CC6)nn5)C4)C3)cn1)N[C@@H](Cc1ncco1)c1nnc(C)n1-2 (stereo partly drawn) [I-644] |  |  |  | < 500 | > 3000 | < 500
18 | Cc1sc2c(c1C)C(c1ccc(C#CC3CC(Cc4ccc(C(=O)N[C@H]5CC[C@H](Oc6ccc(C#N)c(Cl)c6)CC5)nn4)C3)cc1)=N[C@@H](Cc1ncco1)c1nnc(C)n1-2 (stereo partly drawn) [I-645] | < 500 |  | < 500 |  | > 3000 | 
19 | Cc1sc2c(c1C)C(c1ccc(C#CC3CC(Cc4ccc(C(=O)N[C@H]5CC[C@H](Oc6ccc(C#N)c(Cl)c6)CC5)nn4)C3)cc1)=N[C@@H](Cc1ncco1)c1nnc(C)n1-2 (stereo partly drawn) [I-646] |  |  |  | < 500 | < 500 | < 500
20 | Cc1sc2c(c1C)C(c1cccc(OCCC3CCN(c4ccc(C(=O)N[C@H]5CC[C@H](Oc6ccc(C#N)c(Cl)c6)CC5)nn4)CC3)c1)=N[C@@H](C)c1nnc(C)n1-2 [I-647] | < 500 | > 3000 | < 500 |  |  | 
21 | Cc1sc2c(c1C)C(c1cccc(OC3CC4(CCN(c5ccc(C(=O)N[C@H]6CC[C@H](Oc7ccc(C#N)c(Cl)c7)CC6)nn5)CC4)C3)c1)=N[C@@H](C)c1nnc(C)n1-2 [I-648] | < 500 | 500 to 1500 | < 500 |  |  | 
22 | Cc1sc2c(c1C)C(c1ccccc1OC1CCN(c3ccc(C(=O)N[C@H]4CC[C@H](Oc5ccc(C#N)c(Cl)c5)CC4)nn3)CC1)=N[C@@H](C)c1nnc(C)n1-2 [I-649] | < 500 | > 3000 | > 3000 |  |  | 
23 | Cc1sc2c(c1C)C(c1ccccc1OCC1CCN(c3ccc(C(=O)N[C@H]4CC[C@H](Oc5ccc(C#N)c(Cl)c5)CC4)nn3)CC1)=N[C@@H](C)c1nnc(C)n1-2 [I-650] |  |  |  | 1500 to 3000 | > 3000 | < 500
24 | Cc1sc2c(c1C)C(c1ccccc1OC1CC3(CCN(c4ccc(C(=O)N[C@H]5CC[C@H](Oc6ccc(C#N)c(Cl)c6)CC5)nn4)CC3)C1)=N[C@@H](C)c1nnc(C)n1-2 [I-651] | < 500 | > 3000 | > 3000 |  |  | 
25 | CC[C@@H]1N=C(c2ccc(C3CCC4(CCCN(c5ccc(C(=O)N[C@H]6CC[C@H](Oc7ccc(C#N)c(Cl)c7)CC6)nn5)C4)CC3)cc2)c2c(sc(C)c2C)-n2c(C)nnc21 (stereo partly drawn) [I-652] | < 500 | > 3000 | < 500 |  |  | 
26 | CC[C@@H]1N=C(c2ccc(C3CCC4(CCCN(c5ccc(C(=O)N[C@H]6CC[C@H](Oc7ccc(C#N)c(Cl)c7)CC6)nn5)C4)CC3)cc2)c2c(sc(C)c2C)-n2c(C)nnc21 (stereo partly drawn) [I-653] |  |  |  | < 500 | > 3000 | < 500
27 | COC[C@@H]1N=C(c2ccc(C3CCC4(CCCN(c5ccc(C(=O)N[C@H]6CC[C@H](Oc7ccc(C#N)c(Cl)c7)CC6)nn5)C4)CC3)cc2)c2c(sc(C)c2C)-n2c(C)nnc21 (stereo partly drawn) [I-654] | < 500 |  | < 500 |  | > 3000 | 
28 | COC[C@@H]1N=C(c2ccc(C3CCC4(CCCN(c5ccc(C(=O)N[C@H]6CC[C@H](Oc7ccc(C#N)c(Cl)c7)CC6)nn5)C4)CC3)cc2)c2c(sc(C)c2C)-n2c(C)nnc21 (stereo partly drawn) [I-655] |  |  |  | 500 to 1500 | < 500 | < 500
29 | COCC[C@@H]1N=C(c2ccc(C3CCC4(CCCN(c5ccc(C(=O)N[C@H]6CC[C@H](Oc7ccc(C#N)c(Cl)c7)CC6)nn5)C4)CC3)cc2)c2c(sc(C)c2C)-n2c(C)nnc21 (stereo partly drawn) [I-656] | < 500 | > 3000 | < 500 |  |  | 
30 | COCC[C@@H]1N=C(c2ccc(C3CCC4(CCCN(c5ccc(C(=O)N[C@H]6CC[C@H](Oc7ccc(C#N)c(Cl)c7)CC6)nn5)C4)CC3)cc2)c2c(sc(C)c2C)-n2c(C)nnc21 (stereo partly drawn) [I-657] |  |  |  | 500 to 1500 | > 3000 | < 500
31 | COC[C@@H]1N=C(c2ccc(C3CCC4(CCN(c5ccc(C(=O)N[C@H]6CC[C@H](Oc7ccc(C#N)c(Cl)c7)CC6)nn5)CC4)C3)cc2)c2c(sc(C)c2C)-n2c(C)nnc21 (stereo partly drawn) [I-658] | < 500 | < 500 | < 500 |  |  | 
